Common to all, as to type: in vivo
The test system of one series is Echinochloa oryzicola. Description: Herbicidal efficacy test by pre-emergence treatment under submergence condition. Conditions: 15th day after treatment, ratings of 1 to 5.
The test system of the next series is Cyperus difformis. Described as above. The following applies: 15th day after treatment, ratings of 1 to 5.
Series [1] concerns annual broadleaf weeds such as Lindernia procumbens, Rotala indica and Elatine triandra. The series is described as above. The following applies: 15th day after treatment, ratings of 1 to 5.
Description: (§3) A 1/10,000-are pot was filled with paddy field soil, and, after plowing, seeds of Echinochloa oryzicola, Cyperus difformis, Monochoria vaginalis, Scirpus juncoides, Eleocharis acicularis and other annual broadleaf weeds such as Lindernia procumbens, Rotala indica and Elatine triandra were sown. Rice (oryza sativa) seedlings (cultiver “Koshihikari”) at a 2.5-leaf stage were transplanted and kept under a submergence condition. After one day, the wettable powder or emulsifiable concentrate of the compound of the present invention, prepared according to Preparation Example, was diluted and dropped on a water surface at a predetermined dose.
The subject of a further series is Monochoria vaginalis. Described as above. Conditions: 15th day after treatment, ratings of 1 to 5.
A further series has as its system Scirpus juncoides. The description is as above. Conditions: 15th day after treatment, ratings of 1 to 5.
The next series deals with Eleocharis acicularis. The series is described as above. The following applies: 15th day after treatment, ratings of 1 to 5.
Series [2] concerns Amaranthus viridis. Put plainly: Herbicidal efficacy test by soil treatment before germination under upland field condition. The following applies: dose 1 kg/ha; 21st day after treatment; ratings of 1 to 5. From the text:
(§1) A vat having an area of 5×10 cm^2 and a depth of 5 cm was filled with upland field soil, and seeds of Chenopodium album, Echinochloa crus-galli, Amaranthus viridis, Digitaria ciliaris and sweet corn (Zea mays) were sown thereon and covered with soil by a depth of 0.5 cm.

Series [3] deals with Chenopodium album. Described as above. The following applies: dose 1 kg/ha; 21st day after treatment; ratings of 1 to 5.
Description: as §1

The subject of the next series is Digitaria ciliaris. The description is as above. The following applies: dose 1 kg/ha; 21st day after treatment; ratings of 1 to 5.
Description: as §1

For series [4], the system named is Echinochloa crus-galli. The description is as above. Conditions: dose 1 kg/ha; 21st day after treatment; ratings of 1 to 5.
Description: as §1

Series [5] relates to Amaranthus viridis. Put plainly: Herbicidal efficacy test by foliar treatment after germination under upland field condition. The following applies: dose 1 kg/ha, rated 1 to 5 on the 14th day after treatment. The source says: (§2) A vat having an area of 5×10 cm^2 and a depth of 5 cm was filled with upland field soil, and seeds of Chenopodium album, Echinochloa crus-galli, Amaranthus viridis and Abutilon theophrasti were sown thereon and covered with soil by a depth of 0.5 cm. Water was sprayed as required to grow them for 14 days.

In series [6] the test system is Chenopodium album. Described as above. Conditions: dose 1 kg/ha, rated 1 to 5 on the 14th day after treatment.
Description: as §2

In series [7] the test system is Echinochloa crus-galli. Described as above. The following applies: dose 1 kg/ha, rated 1 to 5 on the 14th day after treatment.
Description: as §2

The next series has as its system Abutilon theophrasti. The description is as above. The following applies: Dc: Digitaria ciliaris (table footnote; method names Abutilon theophrasti), dose 1 kg/ha, rated 1 to 5 on the 14th day after treatment.
A further series relates to sweet corn (Zea mays). Description: Injury to corn, soil treatment before germination under upland field condition. Conditions: dose 1 kg/ha; 21st day after treatment; ratings of 1 to 5.
Description: as §1
Throughout, for Herbicidal activity Av: key: 1 shows no influence; 5 shows complete die.
Throughout, for Herbicidal activity Ca: key: 1 shows no influence; 5 shows complete die.
Throughout, for Herbicidal efficacy Cd: key: 1 shows no influence; 5 shows complete die.
Throughout, for Herbicidal efficacy Ea: key: 1 shows no influence; 5 shows complete die.
Throughout, for Herbicidal efficacy Mv: key: 1 shows no influence; 5 shows complete die.

Description for Echinochloa oryzicola: as §3
Description for Eleocharis acicularis: as §3
Description for Monochoria vaginalis: as §3
Description for Scirpus juncoides: as §3

`CNC(=O)n1nc(Oc2c(Cl)cc(C(F)(F)F)cc2Cl)cc1C` [Compound 3-14]: the “Herbicidal efficacy Eo” value with Echinochloa oryzicola (dose 0.5 kg/ha) and in the series on Echinochloa oryzicola (dose 1 kg/ha) was 5 throughout. In addition, the “Herbicidal efficacy Cd” value with Cyperus difformis (dose 0.5 kg/ha) and in the series on Cyperus difformis (dose 1 kg/ha) was 5 in each case. Moreover, the “Herbicidal efficacy Blw” value in series [1] (dose 0.5 kg/ha) and in series [1] (dose 1 kg/ha) was 5 throughout. In addition, the “Herbicidal efficacy Mv” value in the series with Monochoria vaginalis (dose 0.5 kg/ha) and in the series on Monochoria vaginalis (dose 1 kg/ha) was 5 in each case. The “Herbicidal efficacy Sj” value in the series with Scirpus juncoides (dose 0.5 kg/ha) and in the series with Scirpus juncoides (dose 1 kg/ha) was 5 in each case. The “Herbicidal efficacy Ea” value in the series with Eleocharis acicularis (dose 0.5 kg/ha) and with Eleocharis acicularis (dose 1 kg/ha) was 5 each time. For the same compound, the “Herbicidal activity Av” value with Amaranthus viridis [2] and in the series on Amaranthus viridis [5] was 5 each time. The “Herbicidal activity Ca” value in the series with Chenopodium album [3] and in the series on Chenopodium album [6] was 5 throughout. Moreover, the “Herbicidal activity Dc” value with Digitaria ciliaris and with Abutilon theophrasti was 5 throughout. For the same compound, the “Herbicidal activity Ec” value in the series with Echinochloa crus-galli [4] is 4.9; in the series with Echinochloa crus-galli [7], 5.

With `CNC(=S)n1nc(Oc2c(Cl)cc(C(F)(F)F)cc2Cl)cc1C` [Compound 3-15], the “Herbicidal efficacy Eo” value in the series with Echinochloa oryzicola (dose 0.5 kg/ha) and with Echinochloa oryzicola (dose 1 kg/ha) was 5 throughout. Further, the “Herbicidal efficacy Cd” value in the series on Cyperus difformis (dose 0.5 kg/ha) and in the series with Cyperus difformis (dose 1 kg/ha) was 5 in each case. Besides, the “Herbicidal efficacy Blw” value in [1] (dose 0.5 kg/ha) and in [1] (dose 1 kg/ha) was 5 in each case. Moreover, the “Herbicidal efficacy Mv” value in the series on Monochoria vaginalis (dose 0.5 kg/ha) and with Monochoria vaginalis (dose 1 kg/ha) was 5 each time. In addition, the “Herbicidal efficacy Sj” value in the series on Scirpus juncoides (dose 0.5 kg/ha) and in the series on Scirpus juncoides (dose 1 kg/ha) was 5 throughout. Also, the “Herbicidal efficacy Ea” value in the series on Eleocharis acicularis (dose 0.5 kg/ha) and in the series with Eleocharis acicularis (dose 1 kg/ha) was 5 throughout. The “Herbicidal activity Av” value in the series with Amaranthus viridis [5] stood at 5. Further, the “Herbicidal activity Ca” value with Chenopodium album [6] turned out to be 5. Also, the “Herbicidal activity Ec” value in the series on Echinochloa crus-galli [7] is 5. Also, the “Herbicidal activity Dc” value in the series with Abutilon theophrasti turned out to be 5.

Regarding `CCNC(=O)n1nc(Oc2c(Cl)cc(C(F)(F)F)cc2Cl)cc1C` [Compound 3-44], the “Herbicidal efficacy Eo” value in the series on Echinochloa oryzicola (dose 0.5 kg/ha) and in the series with Echinochloa oryzicola (dose 1 kg/ha) was 5 each time. Moreover, the “Herbicidal efficacy Cd” value in the series with Cyperus difformis (dose 0.5 kg/ha) and in the series on Cyperus difformis (dose 1 kg/ha) was 5 in each case. Moreover, the “Herbicidal efficacy Blw” value in series [1] (dose 0.5 kg/ha) and in [1] (dose 1 kg/ha) was 5 throughout. Besides, the “Herbicidal efficacy Mv” value in the series on Monochoria vaginalis (dose 0.5 kg/ha) and in the series with Monochoria vaginalis (dose 1 kg/ha) was 5 in each case. Also, the “Herbicidal efficacy Sj” value with Scirpus juncoides (dose 0.5 kg/ha) and with Scirpus juncoides (dose 1 kg/ha) was 5 throughout. For the same compound, the “Herbicidal efficacy Ea” value in the series with Eleocharis acicularis (dose 0.5 kg/ha) and in the series on Eleocharis acicularis (dose 1 kg/ha) was 5 each time. Moreover, the “Herbicidal activity Av” value with Amaranthus viridis [2] and with Amaranthus viridis [5] was 5 each time. The “Herbicidal activity Ca” value with Chenopodium album [3] and with Chenopodium album [6] was 5 throughout. Besides, the “Herbicidal activity Dc” value with Digitaria ciliaris and in the series with Abutilon theophrasti was 5 each time. Further, the “Herbicidal activity Ec” value with Echinochloa crus-galli [4] and in the series with Echinochloa crus-galli [7] was 5 throughout. For the same compound, the “Injury Zm” value in the series on sweet corn (Zea mays) is 3.

As to `CCNC(=S)n1nc(Oc2c(Cl)cc(C(F)(F)F)cc2Cl)cc1C` [Compound 3-45], the “Herbicidal efficacy Eo” value in the series on Echinochloa oryzicola (dose 0.5 kg/ha) and in the series with Echinochloa oryzicola (dose 1 kg/ha) was 5 each time. The “Herbicidal efficacy Cd” value with Cyperus difformis (dose 0.5 kg/ha) and with Cyperus difformis (dose 1 kg/ha) was 5 throughout. The “Herbicidal efficacy Blw” value in [1] (dose 0.5 kg/ha) and in series [1] (dose 1 kg/ha) was 5 each time. For the same compound, the “Herbicidal efficacy Mv” value with Monochoria vaginalis (dose 0.5 kg/ha) and in the series with Monochoria vaginalis (dose 1 kg/ha) was 5 throughout. For the same compound, the “Herbicidal efficacy Sj” value is 4 in the series with Scirpus juncoides (dose 0.5 kg/ha) and 5 in the series with Scirpus juncoides (dose 1 kg/ha). Besides, the “Herbicidal efficacy Ea” value in the series on Eleocharis acicularis (dose 0.5 kg/ha) and in the series on Eleocharis acicularis (dose 1 kg/ha) was 5 throughout. Also, the “Herbicidal activity Av” value in the series on Amaranthus viridis [2] and in the series on Amaranthus viridis [5] was 5 each time. Besides, the “Herbicidal activity Ca” value in the series on Chenopodium album [3] and in the series with Chenopodium album [6] was 5 in each case. The “Herbicidal activity Dc” value in the series on Digitaria ciliaris and in the series with Abutilon theophrasti was 5 each time. Further, the “Herbicidal activity Ec” value in the series with Echinochloa crus-galli [4] and with Echinochloa crus-galli [7] was 5 in each case. The “Injury Zm” value in the series on sweet corn (Zea mays) came out at 2.

For the compound `CCCNC(=O)n1nc(Oc2ccc(C(F)(F)F)cc2[N+](=O)[O-])cc1C` [Compound 3-82], the “Herbicidal activity Av” value in the series on Amaranthus viridis [5] is reported as 5. The “Herbicidal activity Ca” value with Chenopodium album [6] stood at 5. In the series with Echinochloa crus-galli [7], the “Herbicidal activity Ec” value turned out to be 3.8. The “Herbicidal activity Dc” value in the series on Abutilon theophrasti was found to be 5.

Turning to `Cc1cc(Oc2c(Cl)cc(C(F)(F)F)cc2Cl)nn1C(=O)NC(C)C` [Compound 3-89], the “Herbicidal efficacy Eo” value with Echinochloa oryzicola (dose 0.5 kg/ha) and with Echinochloa oryzicola (dose 1 kg/ha) was 5 throughout. For the same compound, the “Herbicidal efficacy Cd” value in the series with Cyperus difformis (dose 0.5 kg/ha) and in the series with Cyperus difformis (dose 1 kg/ha) was 5 in each case. The “Herbicidal efficacy Blw” value in [1] (dose 0.5 kg/ha) and in series [1] (dose 1 kg/ha) was 5 throughout. In addition, the “Herbicidal efficacy Mv” value in the series with Monochoria vaginalis (dose 0.5 kg/ha) and with Monochoria vaginalis (dose 1 kg/ha) was 5 in each case. Also, the “Herbicidal efficacy Sj” value in the series with Scirpus juncoides (dose 0.5 kg/ha) and in the series with Scirpus juncoides (dose 1 kg/ha) was 5 each time. The “Herbicidal efficacy Ea” value in the series on Eleocharis acicularis (dose 0.5 kg/ha) and in the series on Eleocharis acicularis (dose 1 kg/ha) was 5 throughout. Besides, the “Herbicidal activity Av” value with Amaranthus viridis [5] amounted to 5. The “Herbicidal activity Ca” value in the series on Chenopodium album [6] was 5. For the same compound, in the series on Echinochloa crus-galli [7], the “Herbicidal activity Ec” value is on record as 5. In the series on Abutilon theophrasti, the “Herbicidal activity Dc” value is recorded as 5.

`C=CCNC(=O)n1nc(Oc2c(Cl)cc(C(F)(F)F)cc2Cl)cc1C` [Compound 3-130]: the “Herbicidal efficacy Eo” value in the series on Echinochloa oryzicola (dose 0.5 kg/ha) and in the series with Echinochloa oryzicola (dose 1 kg/ha) was 5 in each case. Also, the “Herbicidal efficacy Cd” value in the series with Cyperus difformis (dose 0.5 kg/ha) and in the series on Cyperus difformis (dose 1 kg/ha) was 5 each time. For the same compound, the “Herbicidal efficacy Blw” value in series [1] (dose 0.5 kg/ha) and in [1] (dose 1 kg/ha) was 5 in each case. Further, the “Herbicidal efficacy Mv” value in the series on Monochoria vaginalis (dose 0.5 kg/ha) and in the series with Monochoria vaginalis (dose 1 kg/ha) was 5 in each case. For the same compound, the “Herbicidal efficacy Sj” value in the series with Scirpus juncoides (dose 0.5 kg/ha) and in the series on Scirpus juncoides (dose 1 kg/ha) was 5 throughout. Moreover, the “Herbicidal efficacy Ea” value with Eleocharis acicularis (dose 0.5 kg/ha) and in the series on Eleocharis acicularis (dose 1 kg/ha) was 5 each time. Moreover, the “Herbicidal activity Av” value in the series with Amaranthus viridis [5] is reported as 5. In addition, the “Herbicidal activity Ca” value in the series on Chenopodium album [6] is reported as 5. For the same compound, the “Herbicidal activity Ec” value in the series on Echinochloa crus-galli [7] is on record as 5. Also, in the series with Abutilon theophrasti, the “Herbicidal activity Dc” value worked out at 5.

For `CCONC(=O)n1nc(Oc2c(Cl)cc(C(F)(F)F)cc2Cl)cc1C` [Compound 3-158], the “Herbicidal efficacy Eo” value in the series with Echinochloa oryzicola (dose 0.5 kg/ha) and in the series with Echinochloa oryzicola (dose 1 kg/ha) was 5 each time. For the same compound, the “Herbicidal efficacy Cd” value in the series on Cyperus difformis (dose 0.5 kg/ha) and in the series with Cyperus difformis (dose 1 kg/ha) was 5 each time. Further, the “Herbicidal efficacy Blw” value in series [1] (dose 0.5 kg/ha) and in [1] (dose 1 kg/ha) was 5 throughout. Besides, the “Herbicidal efficacy Mv” value in the series with Monochoria vaginalis (dose 0.5 kg/ha) and with Monochoria vaginalis (dose 1 kg/ha) was 5 each time. Further, the “Herbicidal efficacy Sj” value in the series on Scirpus juncoides (dose 0.5 kg/ha) and with Scirpus juncoides (dose 1 kg/ha) was 5 throughout. Also, the “Herbicidal efficacy Ea” value in the series with Eleocharis acicularis (dose 0.5 kg/ha) and in the series with Eleocharis acicularis (dose 1 kg/ha) was 5 each time. In addition, the “Herbicidal activity Av” value in the series with Amaranthus viridis [5] amounted to 5. Further, in the series with Chenopodium album [6], the “Herbicidal activity Ca” value turned out to be 5. Also, the “Herbicidal activity Ec” value with Echinochloa crus-galli [7] worked out at 5. Besides, the “Herbicidal activity Dc” value in the series with Abutilon theophrasti amounted to 5.

In the case of `CCC(C)NC(=O)n1nc(Oc2ncc(C(F)(F)F)cc2Cl)cc1C` (centres unmarked) [Compound 4-30, N-s-butyl-3-(3-chloro-5-trifluoromethylpyridin-2-yloxy)-5-methylpyrazole-1-carboxamide], the “Herbicidal activity Av” value with Amaranthus viridis [5] turned out to be 5. Moreover, the “Herbicidal activity Ca” value in the series on Chenopodium album [6] is 5. The “Herbicidal activity Ec” value with Echinochloa crus-galli [7] was 5. Also, the “Herbicidal activity Dc” value in the series on Abutilon theophrasti is given as 5.
